pIC50: −log10 of the molar value.
Tests used:
[1] = Inhibition of potato LOX5 by enzyme immuno assay; set-up: species or system Solanum tuberosum
Rattus norvegicus = experiment: Antiinflammatory activity against carrageenan-induced orally dosed rat assessed paw edema after 3 hrs; assay type: functional; details: po
[2] = biological target: T1, Prostaglandin G/H synthase 1 (Ovis aries, UniProt P05979)
T1 sequence (P05979 whole entry): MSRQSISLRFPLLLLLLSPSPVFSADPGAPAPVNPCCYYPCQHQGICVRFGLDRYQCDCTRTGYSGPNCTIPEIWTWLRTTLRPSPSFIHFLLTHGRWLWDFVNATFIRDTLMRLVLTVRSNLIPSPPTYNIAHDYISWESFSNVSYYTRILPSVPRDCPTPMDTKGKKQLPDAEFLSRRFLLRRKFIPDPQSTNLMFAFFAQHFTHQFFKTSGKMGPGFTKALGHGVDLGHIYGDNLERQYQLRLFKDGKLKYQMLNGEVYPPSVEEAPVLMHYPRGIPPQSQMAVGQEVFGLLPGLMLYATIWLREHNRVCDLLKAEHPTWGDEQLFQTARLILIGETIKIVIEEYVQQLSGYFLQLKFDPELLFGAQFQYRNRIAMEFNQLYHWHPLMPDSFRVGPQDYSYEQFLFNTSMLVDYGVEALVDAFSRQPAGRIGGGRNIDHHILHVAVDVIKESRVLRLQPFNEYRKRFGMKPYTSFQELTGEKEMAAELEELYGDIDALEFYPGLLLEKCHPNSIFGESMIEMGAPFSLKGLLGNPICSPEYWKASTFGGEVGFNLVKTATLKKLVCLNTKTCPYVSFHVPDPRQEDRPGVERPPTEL
Description: Inhibition of ovine COX1 by enzyme immuno assay

| pIC50 [1] | pIC50 [2] | SMILES | ED50 (Rattus norvegicus) [mg/kg] |
| --- | --- | --- | --- |
| 6.46 | 4.88 | CS(=O)(=O)c1ccc(-n2nc(C(F)(F)F)cc2-c2ccn(O)c(=O)c2)cc1 | 66.9 |
| 5.31 | 4.99 | NS(=O)(=O)c1ccc(-n2nc(C(F)(F)F)cc2-c2ccn(O)c(=O)c2)cc1 | 99.8 |
| 5.46 | – | O=C(O)/C=C/c1ccc(O)c(O)c1 [CAFFEIC ACID] | – |
| < 5.00 | – | Cc1ccc(-c2cc(C(F)(F)F)nn2-c2ccc(S(N)(=O)=O)cc2)cc1 [CELECOXIB] | – |
